Data from patent US20180213795A1, “PLANT DISEASE CONTROL COMPOSITION AND PLANT DISEASE CONTROL METHOD” (SUMITOMO CHEMICAL COMPANY, LIMITED, priority 2015, published 2018).

Experiments:
Format in all cases: in vivo
[1] = test system: damping-off fungus (Rhizoctonia solani); test: Test Example 23: soybean seed treatment, damping-off control in pots; settings: soybean seeds, 20 days after
[2] = test system: damping-off fungus (Pythium spp.); test: Test Example 21: corn seed treatment, damping-off control in pots; settings: corn seeds, 20 days after
Procedure: In a rotary seed treatment machine (trade name: HEGE11, manufactured by WINTERSTEIGER), corn seeds (variety: yellow dent corn) were treated by smearing treatment using a flowable formulation of the present bacterial strain as obtained in Formulation Example 13 and ethaboxam flowable formulation (34.6% flowable formulation, Valent U.S.A. Corporation), so that the […] retain the present bacterial strain and/or the compound in the amount shown in Table 6.
Cultivation was carried out in a greenhouse under irrigation. Also, similar procedures were conducted using untreated corn seeds, instead of the treated corn seeds, as described above for the treated compartment (“untreated compartment”). The plants were investigated 20 days after for the number of diseased plants, and the disease incidence was calculated by the following “Equation 1”. The control value of the treated compartment was calculated by the following equation “Equation 2”, based on the disease incidences of the treated compartment and the untreated compartment.
Disease incidence (%)=100×(number of diseased plant/total number of seeded seeds): Equation 1
Control value (%)=100×[(disease incidence in […] in treated compartment)/disease incidence in untreated compartment]: Equation 2
If the effect by the combination of two active ingredients is greater than that of the estimated value E, which is calculated by the Colby's equation as follows, the effect is regarded as synergistic.
wherein, E=Control value when using the mixture of the active ingredients A and B at the concentrations m and n (amount of the active ingredient), respectively. X=Control value when using the active ingredient A at the concentration m (amount of the active ingredient). Y=Control value when using the active ingredient B at the concentration n (amount of the active ingredient).

[3] = test system: damping-off fungus (Pythium spp.); test: Test Example 22: soybean seed treatment, damping-off control in pots; settings: soybean seeds, 20 days after
Procedure: If the effect by the combination of two active ingredients is greater than that of the estimated value E, which is calculated by the Colby's equation as follows, the effect is regarded as synergistic. E=X+Y-X·Y/100 wherein, E=Control value when using the mixture of the active ingredients A and B at the concentrations m and n (amount of the active ingredient), respectively. X=Control value when using the active ingredient A at the concentration m (amount of the active ingredient). Y=Control value when using the active ingredient B at the concentration n (amount of the active ingredient). […] Corporation) and metalaxyl flowable formulation (30.14% flowable formulation, trade name: […] Cultivation was carried out in a greenhouse under irrigation. Also, similar procedures were conducted using untreated soybean seeds, instead of the treated soybean seeds, as described above for the treated compartment (“untreated compartment”). […] Disease incidence (%)=100×(number of diseased plant/total number of seeded seeds): […]

**Q.** With `N#Cc1c[nH]cc1-c1cccc2c1OC(F)(F)O2` [Fludioxonil, fludioxonil] as the compound, how does the “Control Value” ([1]; fludioxonil 0.004 g/kg seeds) read?
**A.** 25.7%

**Q.** What about the “Control Value” ([1]; fludioxonil 0.02 g/kg seeds) of the same compound?
**A.** 37.1%

**Q.** And the “Control Value” ([1]; fludioxonil 0.1 g/kg seeds)?
**A.** 48.6%

**Q.** How did the “Control Value” ([1]; carboxamide compound (1) 0.0004 g/kg seeds) turn out when `CC1CC(C)(C)c2cccc(NC(=O)c3cn(C)nc3C(F)F)c21` (racemic) [The Carboxamide Compound (1)] was run?
**A.** 40.0%

**Q.** What about the “Control Value” ([1]; carboxamide compound (1) 0.002 g/kg seeds) of the same compound?
**A.** 54.3%

**Q.** And the “Control Value” ([1]; carboxamide compound (1) 0.01 g/kg seeds)?
**A.** 65.7%

**Q.** `CCNc1nc(CC)c(C(=O)NC(C#N)c2cccs2)s1` (stereo not drawn) [Ethaboxam, ethaboxam] was tested. Which “Control Value” ([2]; ethaboxam 0.00625 g/kg seeds) did it give?
**A.** 19.4%

**Q.** What about the “Control Value” ([2]; ethaboxam 0.025 g/kg seeds) of the same compound?
**A.** 32.3%

**Q.** What about the “Control Value” ([2]; ethaboxam 0.1 g/kg seeds) of the same compound?
**A.** 48.4%

**Q.** What about the “Control Value” ([3]; ethaboxam 0.075 g/kg seeds) of the same compound?
**A.** 46.9%

**Q.** And the “Control Value” ([3]; ethaboxam 0.15 g/kg seeds)?
**A.** 56.2%

**Q.** What about the “Control Value” ([3]; ethaboxam 0.3 g/kg seeds) of the same compound?
**A.** 62.5%

**Q.** Which “Control Value” ([1]; tolclofos-methyl 0.01 g/kg seeds) does the source give for `COP(=S)(OC)Oc1c(Cl)cc(C)cc1Cl` [Tolclofos-Methyl, tolclofos-methyl] here?
**A.** 11.4%

**Q.** What about the “Control Value” ([1]; tolclofos-methyl 0.05 g/kg seeds) of the same compound?
**A.** 28.6%

**Q.** And the “Control Value” ([1]; tolclofos-methyl 0.25 g/kg seeds)?
**A.** 42.8%

**Q.** How did the “Control Value” ([3]; metalaxyl 0.01 g/kg seeds) turn out when `COCC(=O)N(c1c(C)cccc1C)C(C)C(=O)OC` (stereo not drawn) [Metalaxyl, metalaxyl] was run?
**A.** 40.6%

**Q.** What about the “Control Value” ([3]; metalaxyl 0.04 g/kg seeds) of the same compound?
**A.** 50.0%

**Q.** And the “Control Value” ([3]; metalaxyl 0.16 g/kg seeds)?
**A.** 59.4%
